Measurements reported in the CheMixHub viscosity set.

Assay: xn = mol fraction of the nth substance listed

CC1CCCCC1 + CCCCCCCCCC
viscosity [mPa·s], 101 kPa
Settings	293.15 K	298.15 K	303.15 K	308.15 K
x1 = 0.0406	0.9179	0.8528	0.7888	–
x1 = 0.1014	–	0.843	0.787	0.731
x1 = 0.2029	0.879	0.8207	0.76	–
x1 = 0.2034	–	0.824	0.77	0.716
x1 = 0.2805	0.8623	0.8054	0.747	–
x1 = 0.3035	–	0.806	0.753	0.7
x1 = 0.3569	0.8458	0.7898	0.7352	–
x1 = 0.4055	–	0.787	0.735	0.684
x1 = 0.4409	0.8287	0.7729	0.723	–
x1 = 0.5004	–	0.769	0.719	0.669
x1 = 0.5991	0.7985	0.7421	0.7008	–
x1 = 0.5998	–	0.751	0.702	0.654
x1 = 0.6756	0.7845	0.7282	0.6906	–
x1 = 0.7041	–	0.731	0.684	0.637
x1 = 0.7618	0.7694	0.7135	0.6796	–
x1 = 0.8039	–	0.713	0.667	0.621
x1 = 0.8475	0.7548	0.7009	0.6683	–
x1 = 0.8993	–	0.695	0.651	0.606
x1 = 0.9148	0.7428	0.6913	0.6592	–

CCCCCCCCCCCCCCCCCCCCCCCC + CCCCCCCCCC
Settings	viscosity [mPa·s]
313.2 K, 101.3 kPa, x2 = 0.8	1.48

CCCCCCCCCCCl + CCCCCCCCCC
viscosity [mPa·s], 101 kPa
Settings	x2 = 0.1	x2 = 0.2004	x2 = 0.2954	x2 = 0.3988	x2 = 0.4972	x2 = 0.593	x2 = 0.6968	x2 = 0.7947	x2 = 0.8906
293.15 K	1.796	1.66	1.539	1.419	1.315	1.225	1.136	1.063	0.997
298.15 K	1.649	1.523	1.415	1.307	1.214	1.133	1.054	0.99	0.931
303.15 K	1.5	1.388	1.291	1.196	1.114	1.042	0.973	0.917	0.867
308.15 K	1.353	1.25	1.167	1.084	1.013	0.951	0.891	0.844	0.802

CCCCCCCCCl + CCCCCCCCCC
298 K, 101.3 kPa
Settings	viscosity [mPa·s]
x2 = 0.1115	1.067
x2 = 0.2067	1.026
x2 = 0.3061	0.9966
x2 = 0.4041	0.969
x2 = 0.505	0.9433
x2 = 0.6124	0.9242
x2 = 0.707	0.8969
x2 = 0.797	0.8862
x2 = 0.8983	0.874

CCCCCl + CCCCCCCCCC
298 K, 101.3 kPa
Settings	viscosity [mPa·s]
x2 = 0.1032	0.4681
x2 = 0.202	0.5006
x2 = 0.3087	0.5437
x2 = 0.3992	0.5768
x2 = 0.5065	0.6297
x2 = 0.5992	0.6636
x2 = 0.6974	0.7109
x2 = 0.7967	0.7607
x2 = 0.8968	0.811
